# Data: patent US20240025883A1, “PYRIMIDIN-2-YL SULFONAMIDE DERIVATIVES” (Hoffmann-La Roche Inc., priority 2021, published 2024)
# Target: human GPR17 short isoform (Homo sapiens (Human), UniProt Q13304)
# Assay: GPR17 cAMP assay (hGPR17 cAMP, antagonist mode against EC80 of MDL29,951)
# Type: cell-based
# Details: CHO-K1 cells stably expressing human GPR17 short isoform; EC80 of agonist MDL29,951; forskolin 15 μM
# Summary of the method: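 CHO-K1 cells stably expressing untagged human GPR17 short isoform, 10,000/well in HBSS/10 mM HEPES/0.1% BSA pH 7.4. Compounds added with EC80 MDL29,951 and 0.5 mM IBMX, then 15 μM forskolin 5 min later, 30 min at room temperature; cAMP by TR-FRET, normalized to reference antagonist, sigmoidal fit.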
# Chain of human GPR17 short isoform (Q13304 29-367): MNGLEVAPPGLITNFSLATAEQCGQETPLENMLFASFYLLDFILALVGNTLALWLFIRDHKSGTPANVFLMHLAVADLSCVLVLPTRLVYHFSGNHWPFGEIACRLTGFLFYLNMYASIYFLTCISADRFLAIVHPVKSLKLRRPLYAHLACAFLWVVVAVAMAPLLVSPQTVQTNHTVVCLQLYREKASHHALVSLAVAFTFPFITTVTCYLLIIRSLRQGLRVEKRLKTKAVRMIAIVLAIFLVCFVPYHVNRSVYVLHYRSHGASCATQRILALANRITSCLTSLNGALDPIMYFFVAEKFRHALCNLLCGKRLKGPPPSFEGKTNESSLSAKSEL
row,Structure (SMILES),IC50
1,"COc1nc(NS(=O)(=O)c2csc3nc(Br)ccc23)ncc1CCC#N [Example 149, 6-bromo-N-[5-(2-cyanoethyl)-4-methoxy-pyrimidin-2-yl]thieno[2,3-b]pyridine-3-sulfonamide]",0.147 µM
2,"COc1nc(NS(=O)(=O)c2csc3nc(Br)ccc23)nc(OC)c1CC(F)F [Example 150, 6-bromo-N-[5-(2,2-difluoroethyl)-4,6-dimethoxy-pyrimidin-2-yl]thieno[2,3-b]pyridine-3-sulfonamide]",0.039 µM
3,"COc1nc(NS(=O)(=O)c2csc3nc(Br)ccc23)nc(OC)c1CCC#N [Example 151, 6-bromo-N-[5-(2-cyanoethyl)-4,6-dimethoxy-pyrimidin-2-yl]thieno[2,3-b]pyridine-3-sulfonamide]",0.029 µM
4,"CCc1ccc2c(S(=O)(=O)Nc3ncc(CC(F)F)c(OC)n3)c[nH]c2c1 [Example 152, N-[5-(2,2-difluoroethyl)-4-methoxy-pyrimidin-2-yl]-6-ethyl-1H-indole-3-sulfonamide]",0.104 µM
5,"CCCc1ccc2c(S(=O)(=O)Nc3ncc(CC(F)F)c(OC)n3)c[nH]c2c1 [Example 153, N-[5-(2,2-difluoroethyl)-4-methoxypyrimidin-2-yl]-6-propyl-1H-indole-3-sulfonamide]",0.353 µM
6,"COc1nc(NS(=O)(=O)c2csc3cc(Cl)ccc23)ncc1CC(F)F [Example 154, 6-chloro-N-[5-(2,2-difluoroethyl)-4-methoxy-pyrimidin-2-yl]benzothiophene-3-sulfonamide]",0.045 µM
7,"COc1nc(NS(=O)(=O)c2csc3cc(Cl)ccc23)ncc1CCC(F)F [Example 155, 6-chloro-N-[5-(3,3-difluoropropyl)-4-methoxy-pyrimidin-2-yl]benzothiophene-3-sulfonamide]",0.116 µM
8,"COc1nc(NS(=O)(=O)c2csc3cc(Cl)ccc23)ncc1CCC#N [Example 156, 6-chloro-N-[5-(2-cyanoethyl)-4-methoxy-pyrimidin-2-yl]benzothiophene-3-sulfonamide]",0.092 µM
9,"COc1nc(NS(=O)(=O)c2csc3cc(Br)ccc23)ncc1OCC(F)F [Example 157, 6-bromo-N-[5-(2,2-difluoroethoxy)-4-methoxy-pyrimidin-2-yl]benzothiophene-3-sulfonamide]",0.176 µM
10,"COc1nc(NS(=O)(=O)c2csc3cc(Br)ccc23)ncc1OCCF [Example 158, 6-bromo-N-[5-(2-fluoroethoxy)-4-methoxy-pyrimidin-2-yl]benzothiophene-3-sulfonamide]",0.047 µM
11,"COc1nc(NS(=O)(=O)c2csc3cc(C)ccc23)ncc1OCCF [Example 159, N-[5-(2-fluoroethoxy)-4-methoxy-pyrimidin-2-yl]-6-methyl-benzothiophene-3-sulfonamide]",0.218 µM
12,"COc1nc(NS(=O)(=O)c2c[nH]c3nc(Br)ccc23)nc(OC)c1C [Example 160, 6-bromo-N-(4,6-dimethoxy-5-methyl-pyrimidin-2-yl)-1H-pyrrolo[2,3-b]pyridine-3-sulfonamide]",0.011 µM
13,"COc1nc(NS(=O)(=O)c2c[nH]c3nc(Br)ccc23)ncc1OCC(F)F [Example 161, 6-bromo-N-[5-(2,2-difluoroethoxy)-4-methoxy-pyrimidin-2-yl]-1H-pyrrolo[2,3-b]pyridine-3-sulfonamide]",0.072 µM
14,"COc1nc(NS(=O)(=O)c2csc3c(F)c(Cl)ccc23)ncc1CC(F)F [Example 162, 6-chloro-N-[5-(2,2-difluoroethyl)-4-methoxy-pyrimidin-2-yl]-7-fluoro-benzothiophene-3-sulfonamide]",0.248 µM
15,"COc1nc(NS(=O)(=O)c2csc3c(F)c(Cl)ccc23)ncc1CCC#N [Example 163, 6-chloro-N-[5-(2-cyanoethyl)-4-methoxy-pyrimidin-2-yl]-7-fluoro-benzothiophene-3-sulfonamide]",0.216 µM
16,"COc1nc(NS(=O)(=O)c2c[nH]c3c(F)c(F)ccc23)ncc1CC(F)F [Example 164, N-[5-(2,2-difluoroethyl)-4-methoxy-pyrimidin-2-yl]-6,7-difluoro-1H-indole-3-sulfonamide]",0.126 µM
17,"COc1nc(NS(=O)(=O)c2csc3nc(C(F)F)ccc23)ncc1OCCF [Example 165, 6-(difluoromethyl)-N-[5-(2-fluoroethoxy)-4-methoxy-pyrimidin-2-yl]thieno[2,3-b]pyridine-3-sulfonamide]",1.11 µM
18,"COc1nc(NS(=O)(=O)c2csc3nc(C(F)F)ccc23)ncc1CC(F)F [Example 166, N-[5-(2,2-difluoroethyl)-4-methoxy-pyrimidin-2-yl]-6-(difluoromethyl)thieno[2,3-b]pyridine-3-sulfonamide]",1.16 µM
19,"COc1nc(NS(=O)(=O)c2csc3nc(C(F)F)ccc23)nc(OC)c1CC(F)F [Example 167, N-[5-(2,2-difluoroethyl)-4,6-dimethoxy-pyrimidin-2-yl]-6-(difluoromethyl)thieno[2,3-b]pyridine-3-sulfonamide]",0.259 µM

row,Structure (SMILES),IC50
1,"COc1nc(NS(=O)(=O)c2c[nH]c3c2ccc2cccnc23)nc(OC)c1OCC(F)F [Example 168, N-[5-(2,2-difluoroethoxy)-4,6-dimethoxy-pyrimidin-2-yl]-1H-pyrrolo[3,2-h]quinoline-3-sulfonamide]",0.026 µM
2,"COc1nc(NS(=O)(=O)c2c[nH]c3c2ccc2cccnc23)nc(OC)c1CC(F)F [Example 169, N-[5-(2,2-difluoroethyl)-4,6-dimethoxy-pyrimidin-2-yl]-1H-pyrrolo[3,2-h]quinoline-3-sulfonamide]",0.02 µM
3,"COc1nc(NS(=O)(=O)c2c[nH]c3nc(Cl)ccc23)ncc1OCC(F)F [Example 170, 6-chloro-N-[5-(2,2-difluoroethoxy)-4-methoxy-pyrimidin-2-yl]-1H-pyrrolo[2,3-b]pyridine-3-sulfonamide]",0.162 µM
4,"COc1nc(NS(=O)(=O)c2c[nH]c3nc(Cl)ccc23)nc(OC)c1OC(F)(F)CF [Example 171, 6-chloro-N-[4,6-dimethoxy-5-(1,1,2-trifluoroethoxy)pyrimidin-2-yl]-1H-pyrrolo[2,3-b]pyridine-3-sulfonamide]",0.089 µM
5,"COc1nc(NS(=O)(=O)c2c[nH]c3nc(Br)ccc23)nc(OC)c1OC(F)F [Example 172, 6-bromo-N-[5-(difluoromethoxy)-4,6-dimethoxy-pyrimidin-2-yl]-1h-pyrrolo[2,3-b]pyridine-3-sulfonamide]",0.015 µM
6,"COc1cnc(NS(=O)(=O)c2c[nH]c3cc(Cl)ccc23)nc1Cl [Example 173, 6-chloro-N-(4-chloro-5-methoxy-pyrimidin-2-yl)-1H-indole-3-sulfonamide]",0.877 µM
7,"COc1nc(NS(=O)(=O)c2c[nH]c3cc(Cl)ccc23)ncc1OCCCF [Example 174, 6-chloro-N-[5-(3-fluoropropoxy)-4-methoxy-pyrimidin-2-yl]-1H-indole-3-sulfonamide]",0.484 µM
8,"CC#CCOc1cnc(NS(=O)(=O)c2c[nH]c3cc(Cl)ccc23)nc1OC [Example 175, N-(5-but-2-ynoxy-4-methoxy-pyrimidin-2-yl)-6-chloro-1H-indole-3-sulfonamide]",0.073 µM
9,"COc1nc(NS(=O)(=O)c2c[nH]c3cc(Cl)ccc23)ncc1CC(F)CF (centres unmarked) [Example 176, 6-chloro-N-[5-(2,3-difluoropropyl)-4-methoxy-pyrimidin-2-yl]-1H-indole-3-sulfonamide]",0.047 µM
10,"COc1nc(NS(=O)(=O)c2c[nH]c3cc(Cl)ccc23)ncc1CC(F)(F)F [Example 177, 6-chloro-N-[4-methoxy-5-(2,2,2-trifluoroethyl)pyrimidin-2-yl]-1H-indole-3-sulfonamide]",0.162 µM
11,"COc1nc(NS(=O)(=O)c2c[nH]c3cc(Cl)ccc23)ncc1CCC(F)(F)F [Example 178, 6-chloro-N-[4-methoxy-5-(3,3,3-trifluoropropyl)pyrimidin-2-yl]-1H-indole-3-sulfonamide]",0.108 µM
12,"COc1nc(NS(=O)(=O)c2c[nH]c3cc(Cl)ccc23)ncc1C#CC1COC1 [Example 180, 6-chloro-N-[4-methoxy-5-[2-(oxetan-3-yl)ethynyl]pyrimidin-2-yl]-1H-indole-3-sulfonamide]",0.305 µM
13,"COc1nc(NS(=O)(=O)c2c[nH]c3cc(Cl)ccc23)ncc1CCC1COC1 [Example 181, 6-chloro-N-[4-methoxy-5-[2-(oxetan-3-yl)ethyl]pyrimidin-2-yl]-1H-indole-3-sulfonamide]",16.8 µM
14,"COc1nc(NS(=O)(=O)c2c[nH]c3cc(C)ccc23)ncc1CC(F)F [Example 182, N-[5-(2,2-difluoroethyl)-4-methoxy-pyrimidin-2-yl]-6-methyl-1H-indole-3-sulfonamide]",0.101 µM
15,"COc1nc(NS(=O)(=O)c2c[nH]c3c(Br)c(Cl)ccc23)ncc1CCC(F)F [Example 183, 7-bromo-6-chloro-N-[5-(3,3-difluoropropyl)-4-methoxy-pyrimidin-2-yl]-1H-indole-3-sulfonamide]",0.023 µM
16,"COc1nc(NS(=O)(=O)c2c[nH]c3c(C)c(Br)ccc23)ncc1CC(F)F [Example 184, 6-bromo-N-[5-(2,2-difluoroethyl)-4-methoxy-pyrimidin-2-yl]-7-methyl-1H-indole-3-sulfonamide]",0.029 µM
17,"COc1nc(NS(=O)(=O)c2c[nH]c3cc(Cl)c(F)cc23)ncc1CC(F)F [Example 185, 6-chloro-N-[5-(2,2-difluoroethyl)-4-methoxy-pyrimidin-2-yl]-5-fluoro-1H-indole-3-sulfonamide]",0.089 µM
18,"COc1nc(NS(=O)(=O)c2c[nH]c3c(OC)c(Cl)ccc23)ncc1CC(F)F [Example 186, 6-chloro-N-[5-(2,2-difluoroethyl)-4-methoxy-pyrimidin-2-yl]-7-methoxy-1H-indole-3-sulfonamide]",0.013 µM
19,"COc1nc(NS(=O)(=O)c2c[nH]c3c(OC)c(Cl)ccc23)ncc1CCC(F)F [Example 187, 6-chloro-N-[5-(3,3-difluoropropyl)-4-methoxy-pyrimidin-2-yl]-7-methoxy-1H-indole-3-sulfonamide]",0.018 µM
